Data taken from PubChem BioAssay (NCI).
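Following 48 hours of exposure in 96-well plates, responses at five concentrations were used to interpolate endpoints linearly. TGI: concentration producing complete growth inhibition.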

How the values were obtained:
Experiment in all cases: NCI anticancer screen, dose series, 48 h
786-0 renal = system: 786-0 renal
A498 renal = system: A498 renal
A549 NSCLC = system: A549 NSCLC
ACHN renal = system: ACHN renal
BT-549 breast = system: BT-549 breast
CAKI-1 renal = system: CAKI-1 renal
CCRF-CEM leukemia = system: CCRF-CEM leukemia
DU-145 prostate = system: DU-145 prostate
HCC-2998 colon = system: HCC-2998 colon
HCT-116 colon = system: HCT-116 colon
HCT-15 colon = system: HCT-15 colon
HL-60(TB) leukemia = system: HL-60(TB) leukemia
HOP-92 NSCLC = system: HOP-92 NSCLC
HT29 colon = system: HT29 colon
IGROV1 ovarian = system: IGROV1 ovarian
K-562 leukemia = system: K-562 leukemia
KM12 colon = system: KM12 colon
M14 melanoma = system: M14 melanoma
MALME-3M melanoma = system: MALME-3M melanoma
MDA-MB-231 breast = system: MDA-MB-231 breast
MDA-MB-435 = system: MDA-MB-435
MDA-N = system: MDA-N
MOLT-4 leukemia = system: MOLT-4 leukemia
NCI-H226 lung = system: NCI-H226 lung
NCI-H23 lung = system: NCI-H23 lung
NCI-H460 lung = system: NCI-H460 lung
NCI-H522 lung = system: NCI-H522 lung
NCI/ADR-RES ovarian = system: NCI/ADR-RES ovarian
OVCAR-3 ovarian = system: OVCAR-3 ovarian
OVCAR-4 ovarian = system: OVCAR-4 ovarian
OVCAR-5 ovarian = system: OVCAR-5 ovarian
OVCAR-8 ovarian = system: OVCAR-8 ovarian
PC-3 prostate = system: PC-3 prostate
RPMI-8226 leukemia = system: RPMI-8226 leukemia
RXF 393 renal = system: RXF 393 renal
SF-268 CNS = system: SF-268 CNS
SF-295 CNS = system: SF-295 CNS
SF-539 CNS = system: SF-539 CNS
SK-MEL-2 melanoma = system: SK-MEL-2 melanoma
SK-MEL-28 melanoma = system: SK-MEL-28 melanoma
SK-MEL-5 melanoma = system: SK-MEL-5 melanoma
SN12C renal = system: SN12C renal
SNB-19 CNS = system: SNB-19 CNS
SNB-75 CNS = system: SNB-75 CNS
SR leukemia = system: SR leukemia
SW-620 colon = system: SW-620 colon
T-47D breast = system: T-47D breast
TK-10 renal = system: TK-10 renal
U251 CNS = system: U251 CNS
UACC-257 melanoma = system: UACC-257 melanoma
UACC-62 melanoma = system: UACC-62 melanoma
UO-31 renal = system: UO-31 renal
COLO 205 colon = system: COLO 205 colon
EKVX NSCLC = system: EKVX NSCLC
HOP-62 NSCLC = system: HOP-62 NSCLC
LOX IMVI melanoma = system: LOX IMVI melanoma
MCF7 breast = system: MCF7 breast
SK-OV-3 ovarian = system: SK-OV-3 ovarian

NC(Cc1ccc(O)c(O)c1)P(=O)(O)O (centres undefined)
TGI (786-0 renal): > 100 µM
TGI (A498 renal): > 100 µM
TGI (A549 NSCLC): > 100 µM
TGI (ACHN renal): > 100 µM
TGI (BT-549 breast): > 100 µM
TGI (CAKI-1 renal): > 100 µM
TGI (CCRF-CEM leukemia): 68.6 µM
TGI (DU-145 prostate): > 100 µM
TGI (HCC-2998 colon): > 100 µM
TGI (HCT-116 colon): > 100 µM
TGI (HCT-15 colon): > 100 µM
TGI (HL-60(TB) leukemia): 45.7 µM
TGI (HOP-92 NSCLC): > 100 µM
TGI (HT29 colon): > 100 µM
TGI (IGROV1 ovarian): > 100 µM
TGI (K-562 leukemia): 42 µM
TGI (KM12 colon): > 100 µM
TGI (M14 melanoma): > 100 µM
TGI (MALME-3M melanoma): > 100 µM
TGI (MDA-MB-231 breast): > 100 µM
TGI (MDA-MB-435): > 100 µM
TGI (MDA-N): > 100 µM
TGI (MOLT-4 leukemia): > 100 µM
TGI (NCI-H226 lung): > 100 µM
TGI (NCI-H23 lung): > 100 µM
TGI (NCI-H460 lung): > 100 µM
TGI (NCI-H522 lung): 20.1 µM
TGI (NCI/ADR-RES ovarian): > 100 µM
TGI (OVCAR-3 ovarian): > 100 µM
TGI (OVCAR-4 ovarian): > 100 µM
TGI (OVCAR-5 ovarian): > 100 µM
TGI (OVCAR-8 ovarian): > 100 µM
TGI (PC-3 prostate): > 100 µM
TGI (RPMI-8226 leukemia): > 100 µM
TGI (RXF 393 renal): > 100 µM
TGI (SF-268 CNS): > 100 µM
TGI (SF-295 CNS): > 100 µM
TGI (SF-539 CNS): > 100 µM
TGI (SK-MEL-2 melanoma): > 100 µM
TGI (SK-MEL-28 melanoma): > 100 µM
TGI (SK-MEL-5 melanoma): > 100 µM
TGI (SN12C renal): > 100 µM
TGI (SNB-19 CNS): > 100 µM
TGI (SNB-75 CNS): > 100 µM
TGI (SR leukemia): > 100 µM
TGI (SW-620 colon): 43.2 µM
TGI (T-47D breast): 95.7 µM
TGI (TK-10 renal): > 100 µM
TGI (U251 CNS): > 100 µM
TGI (UACC-257 melanoma): > 100 µM
TGI (UACC-62 melanoma): > 100 µM
TGI (UO-31 renal): > 100 µM

Cc1cc(S(=O)(=O)NC2=NCC(C)NN2)c(S)cc1Cl (centres undefined)
TGI (786-0 renal): > 100 µM
TGI (A498 renal): 69.8 µM
TGI (A549 NSCLC): > 100 µM
TGI (ACHN renal): > 100 µM
TGI (BT-549 breast): > 100 µM
TGI (CAKI-1 renal): > 100 µM
TGI (CCRF-CEM leukemia): > 100 µM
TGI (COLO 205 colon): > 100 µM
TGI (DU-145 prostate): > 100 µM
TGI (EKVX NSCLC): > 100 µM
TGI (HCC-2998 colon): > 100 µM
TGI (HCT-116 colon): > 100 µM
TGI (HCT-15 colon): > 100 µM
TGI (HL-60(TB) leukemia): > 100 µM
TGI (HOP-62 NSCLC): > 100 µM
TGI (HT29 colon): > 100 µM
TGI (IGROV1 ovarian): 53.3 µM
TGI (K-562 leukemia): 80.9 µM
TGI (KM12 colon): > 100 µM
TGI (LOX IMVI melanoma): 37.7 µM
TGI (M14 melanoma): > 100 µM
TGI (MALME-3M melanoma): 69.2 µM
TGI (MCF7 breast): > 100 µM
TGI (MDA-MB-231 breast): > 100 µM
TGI (MDA-MB-435): > 100 µM
TGI (MDA-N): > 100 µM
TGI (MOLT-4 leukemia): > 100 µM
TGI (NCI-H226 lung): > 100 µM
TGI (NCI-H23 lung): > 100 µM
TGI (NCI-H460 lung): > 100 µM
TGI (NCI-H522 lung): 47 µM
TGI (NCI/ADR-RES ovarian): > 100 µM
TGI (OVCAR-3 ovarian): > 100 µM
TGI (OVCAR-4 ovarian): > 100 µM
TGI (OVCAR-5 ovarian): > 100 µM
TGI (OVCAR-8 ovarian): > 100 µM
TGI (PC-3 prostate): > 100 µM
TGI (RPMI-8226 leukemia): 61.8 µM
TGI (RXF 393 renal): > 100 µM
TGI (SF-268 CNS): 73 µM
TGI (SF-295 CNS): > 100 µM
TGI (SF-539 CNS): > 100 µM
TGI (SK-MEL-2 melanoma): 84.3 µM
TGI (SK-MEL-28 melanoma): > 100 µM
TGI (SK-MEL-5 melanoma): > 100 µM
TGI (SK-OV-3 ovarian): > 100 µM
TGI (SN12C renal): > 100 µM
TGI (SNB-19 CNS): > 100 µM
TGI (SNB-75 CNS): > 100 µM
TGI (SR leukemia): 90.4 µM
TGI (SW-620 colon): > 100 µM
TGI (T-47D breast): > 100 µM
TGI (TK-10 renal): > 100 µM
TGI (U251 CNS): > 100 µM
TGI (UACC-257 melanoma): > 100 µM
TGI (UACC-62 melanoma): > 100 µM
TGI (UO-31 renal): > 100 µM
